From publication PMC7650794, “Pharmacological Modulation of Blood–Brain Barrier Permeability by Kinin Analogs in Normal and Pathologic Conditions” (Pharmaceuticals, 2020)
Non-standard residues stand in square brackets, D forms with d. Residues, ends and D or L forms follow the SMILES beside them. *: point of attachment. X1 = COc1ccc(C[C@@H](CN[C@@H](CCCNC(=N)N)C(=O)O)N*)cc1; Hyp = O=C(O)[C@@H]1C[C@@H](O)CN1; 2Thi = N[C@@H](Cc1cccs1)C(=O)O

Assays:
[1] = biological target: T1, human B2R (Homo sapiens, UniProt P30411); experiment: Radioligand displacement binding assay, [3H]BK, human B2R-HEK293 cells; settings: displacement of 1 nM [3H]BK, living adherent HEK293 cells stably expressing human B2R, serum-free DMEM, 1.5 h, 4 °C; mean of two independent experiments performed in duplicates
T1 construct: expressed in transfected cells; host or cells: QBI HEK 293A cells, lentiviral transduction with pCDH-BDKRB2, puromycin selection
T1 sequence (P30411 1-391): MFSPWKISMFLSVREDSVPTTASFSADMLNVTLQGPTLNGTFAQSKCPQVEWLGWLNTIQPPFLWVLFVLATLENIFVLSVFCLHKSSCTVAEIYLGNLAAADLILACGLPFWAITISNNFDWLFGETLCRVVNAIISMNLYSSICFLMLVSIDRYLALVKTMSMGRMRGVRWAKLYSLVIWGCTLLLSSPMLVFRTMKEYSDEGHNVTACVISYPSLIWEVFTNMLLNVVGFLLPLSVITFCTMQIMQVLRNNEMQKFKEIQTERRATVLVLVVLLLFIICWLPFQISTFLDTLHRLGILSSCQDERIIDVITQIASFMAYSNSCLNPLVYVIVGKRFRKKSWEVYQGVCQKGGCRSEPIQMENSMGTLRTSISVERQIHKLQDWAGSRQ
Protocol: The pCDH-BDKRB2 vector was produced from the plasmid pcDNA3.1/human BDKRB2 by PCR amplification using the primers 5′-[…]-3′ and 5′-[…]-3′, and introduced into pCDH-CMV-MCS-EF1 vector using BamHI et XbaI restriction sites. Lentiviruses were produced from pCDH-BDKRB2 vector in HEK293T cells using the X-tremeGENE HP transfection reagent (Millipore-Sigma, Oakville, ON, Canada). Lentiviruses were harvested 48 h post-transfection and used to infect QBI HEK 293A cells (ATCC). Transduced cells were selected using 5 µg/mL of puromycin (Thermo Fisher, Burlington, On, Canada).
Radioligand displacement binding assays were performed as we previously described, with slight modifications. HEK293 cells stably expressing human B2R were used for these assays (see text above). […] Radioactivity of samples was measured by a β-scintillation counter (PerkinElmer, Woodbridge, On, Canada). Binding affinities of peptides were expressed in terms of IC50 values—the molar concentration of an unlabeled agonist causing 50% displacement of specific binding (GraphPad Prism 8.2).

[2] = biological target: T1, human B2R; experiment: IP-One accumulation assay, human B2R-HEK293 cells; format: cell-based; settings: IP1 accumulation, 30 min, room temperature, pH 7.4, 50 mM LiCl, human B2R-HEK293, 15,000 cells per well; mean of two independent experiments performed in duplicates; read-out: IP1 Assays (EC50; nM)
Protocol: The IP-One assay was performed on living, adherent human B2R-HEK293 cells according to the manufacturer’s recommendations (Cisbio, #62IPAPEB, Bedford, MA, USA). […] IP1-d2 and anti-IP1-Cryptate were added for at least 1 h. Fluorescence signal was measured using a Tecan M1000 plate reader (excitation at 320 nm and emission at 620 and 665 nm). EC50 values were calculated by curve-fitting using GraphPad Prism 8.2.

[3] = tested on: BBB, normal and focal-irradiated dog brains; settings: in vivo, iv; cited from earlier work
From the text: Radiation therapy is part of the standard treatment paradigm for CNS tumors. The short-term effects of prior radiotherapy on the BBB opening induced by Labradimil have been investigated in normal and focal-irradiated dog brains. […] In this study, we focused on late post-radiotherapy complications leading to radionecrosis (Figure 4), which c ...

[4] = tested on: angiotensin-converting enzyme (ACE, alias kininase II); settings: cited from earlier work

SMILES: COc1ccc(C[C@@H](CN[C@@H](CCCNC(=N)N)C(=O)O)NC(=O)[C@@H]2CCCN2C(=O)[C@H](CO)NC(=O)[C@H](Cc2cccs2)NC(=O)CNC(=O)[C@@H]2C[C@@H](O)CN2C(=O)[C@@H]2CCCN2C(=O)[C@@H](N)CCCNC(=N)N)cc1 [Labradimil, [Hyp^3, Thi^5, (^4Me)Tyr^8(ΨCH2NH)Arg^9]-BK] (H-RP[Hyp]G[2Thi]SP-X1)
- IC50 [1]: 17 nM
- EC50 [2]: 47 nM
- vasogenic edema associated with focal radiation injury [3]: not exacerbating the vasogenic edema associated with focal radiation injury
- protection against enzymatic degradation by ACE [4]: fully protected against enzymatic degradation by the angiotensin-converting enzyme
